Measured values: publication PMC11206678, “Peptide-Alkoxyamine Drugs: An Innovative Approach to Fight Schistosomiasis: “Digging Their Graves with Their Forks”” (Pathogens, 2024)
Counter-ions that a name gives are not always drawn.

Tested on: Schistosoma mansoni adult worms
Assay: Viability of Schistosoma mansoni adult worms in vitro
Assay type: cell-based, Schistosoma mansoni NMRI strain
Conditions: 100 μg/mL, 37 °C; for Time to Kill 50% of Parasites / Time to Kill 100% of Parasites: adult worms in RPMI 1640/Tween 80/DMSO, observed up to 72 h, duplicate wells; for Activity/toxicity towards schistosomes (in words): adult worms
Method: Experiments on the viability of Schistosoma mansoni adult worms. In vitro tests were performed on Schistosoma mansoni NMRI strains. This parasite is lab maintained on Biomphalaria glabrata (BRE strain) as intermediate mollusc host and Golden Hamster (Janvier Labs, Le Genest-Saint-Isle, France) as definitive vertebrate host. Methods, for molluscs’ and hamsters’ infection and for parasite recovery, were previously described. Adult worms were recovered by hepatic perfusion technique between 42 and 47 days post hamster exposition to parasite larvae. Worms were carefully collected and disposed in 12-well Falcon® plate containing 2 mL of RPMI 1640 (supplemented with L-glutamine and Hepes 25 mM). The plates containing a minimum of 15 worms by well were then placed in an incubator chamber at 37 °C and 5% CO2. The worms sex ratio was almost balanced in each well. The drug was first dissolved in DMSO (Sigma-Aldrich) to give a 100 mg/mL mother solution. Then the stock solution was complemented with Tween 80 and RPMI to obtain the following final ratio dilution: RPMI 1640/Tween 80/DMSO and 1000/0.95/3.8, v/v/v.
All molecules were tested at a final concentration of 100 µg/mL and 10 µg/mL. A negative control consisted in adding the same RPMI 1640/Tween 80/DMSO solution, but without any drug and a positive control consisted in adding praziquantel. All molecules and control were performed in duplicates of well. The worm viability was checked after 1, 2, 3, 4, 5, 6, 7, 8, 24, 48, and 72 h after adding the molecule.

| Compound | Time to Kill 50% of Parasites | Time to Kill 100% of Parasites | Activity/toxicity towards schistosomes (in words) | Time to Kill 50% of Parasites (listed as praziquantel) |
| --- | --- | --- | --- | --- |
| 4-(((S)-1-(((S)-1-(((S)-1-carboxy-2-phenylethyl)amino)-3-methyl-1-oxobutan-2-yl)amino)-1-oxo-3-phenylpropan-2-yl)amino)-4-oxobutanoic acid [P10L] | 6 h | 24 h | some activity towards schistosomes |  |
| O=C(C1CCCCC1)N1CC(=O)N2CCc3ccccc3C2C1 (stereo not shown) [PZQ, praziquantel, reference compound] | 1 h | 1 h |  | < 1 h |
| O=C(O)C(F)(F)F [TFA, reference compound] | 7 h | 24 h |  |  |
| (S)-1-(((S)-1-(((S)-1-((4-ethylphenyl)amino)-1-oxo-3-phenylpropan-2-yl)amino)-3-methyl-1-oxobutan-2-yl)amino)-1-oxo-3-phenylpropan-2-aminium trifluoroacetate [P22L] |  |  | no activity |  |
| (S)-1-(((S)-1-(((S)-1-carboxy-2-phenylethyl)amino)-3-methyl-1-oxobutan-2-yl)amino)-1-oxo-3-phenylpropan-2-aminium trifluoroacetate [P11L] |  |  | no activity |  |
| (S)-2-((S)-2-amino-3-phenylpropanamido)-N-((S)-1-((4-ethylphenyl)amino)-1-oxo-3-phenylpropan-2-yl)-3-methylbutanamide [P25L] |  |  | no activity |  |
| Benzyl 4-(((S)-1-(((S)-1-(((S)-1-((4-ethylphenyl)amino)-1-oxo-3-phenylpropan-2-yl)amino)-3-methyl-1-oxobutan-2-yl)amino)-1-oxo-3-phenylpropan-2-yl)amino)-4-oxobutanoate [P23L] |  |  | no activity |  |
| L-phenylalanyl-L-valyl-L-phenylalanine [P18L] |  |  | no activity |  |
